Assay results reported in patent publication US20120316158A1, “OPHTHALMIC SOLUTION FOR TREATING OCULAR INFECTION COMPRISING LEVOFLOXACIN OR SALT THEREOF OR SOLVATE OF THE SAME, METHOD FOR TREATING OCULAR INFECTION, LEVOFLOXACIN OR SALT THEREOF OR SOLVATE OF THE SAME, AND USE THEREOF” (priority 2010, published 2012).

Columns and labels:
MSSA = test: MIC of clinical isolate from a patient suffering from an external ocular infection; type: cell-based; conditions: Staphylococcus aureus; MSSA clinical isolate from a patient with an external ocular infection
Protocol: MSSA (MIC=0.5 μg/mL with respect to levofloxacin) was isolated from a patient suffering from an external ocular infection.

[1] = tested on: methicillin-sensitive Staphylococcus aureus; conditions: isolates from a patient suffering from bacterial keratitis; cited from earlier work

C[C@H]1COc2c(N3CCN(C)CC3)c(F)cc3c(=O)c(C(=O)O)cn1c23 [levofloxacin, Levofloxacin]
MIC (MSSA): 0.5 mg/L | clinically isolated MSSA resistant to levofloxacin [1]: about 10%
